In patent publication US7329685B2, “1-Phenyl-2-oxo-3-sulfonylamino-pyrrolidine derivatives and related compounds as factor Xa inhibitors for the treatment of acute vascular diseases” (Glaxo Group Limited, priority 2003, dated 2008):
Where a name gives a salt, the structure may show the parent alone.

Biological target: human Factor Xa (Homo sapiens, UniProt P00742)
Assay: In vitro assay for inhibition of Factor Xa (fluorogenic assay, Rhodamine 110 bis-CBZ-glycylglycyl-L-arginine amide substrate)
Type: biochemical
Conditions: Ki = IC50/1.6, tiers 'more preferably' and 'most preferably'
Procedure: In Vitro Assay for Inhibition of Factor Xa
Compounds of the present invention were tested for their Factor Xa inhibitory activity as determined in vitro by their ability to Inhibit human Factor Xa in a fluorogenic assay, using Rhodamine 110, bis-CBZ-glycylglycyl-L-arginine amide as the fluorogenic substrate. Compounds were diluted from a 10 mM stock solution in dimethylsulfoxide at appropriate concentrations. Assay was performed at room temperature using buffer consisting of: 50 mM Tris-HCl, 150 mM NaCl, 5 mM CaCl2, pH 7.4. containing human Factor Xa (final conc. Of 0.0003U.ml-1). Compound and enzyme were preincubated for 15 min prior to addition of the substrate (final conc. of 10 μM). The reaction was stopped after 3 hrs with the addition of H-D-Phe-Pro-Arg-Chloromethylketone. An LJL-Analyst fluorimeter was used to monitor fluorescence with 485 nm excitation/535 nm emission. To obtain IC50 values the data were analysed using ActivityBase® and XLfit®.
Calculation of Ki values: Ki=IC50/(1+[Substrate]/Km)
The Ki value for the above assay can be obtained by dividing the IC50 value by 1.6.

human Factor Xa, sequence (P00742 235-488 limits assumed): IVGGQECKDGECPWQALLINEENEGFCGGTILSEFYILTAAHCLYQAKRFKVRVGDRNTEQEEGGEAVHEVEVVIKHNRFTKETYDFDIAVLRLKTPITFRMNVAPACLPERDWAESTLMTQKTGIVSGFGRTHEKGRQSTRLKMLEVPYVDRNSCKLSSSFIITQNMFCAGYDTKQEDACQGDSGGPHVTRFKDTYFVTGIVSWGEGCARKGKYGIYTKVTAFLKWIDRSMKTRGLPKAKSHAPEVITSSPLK
human Factor Xa, sequence (P00742 41-179 partner limits assumed): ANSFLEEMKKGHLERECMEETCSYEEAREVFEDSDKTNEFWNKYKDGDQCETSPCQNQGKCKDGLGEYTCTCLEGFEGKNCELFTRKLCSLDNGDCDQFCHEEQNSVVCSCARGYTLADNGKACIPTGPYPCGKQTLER

| Compound | Ki |
| --- | --- |
| C/C(=C\S(=O)(=O)N(Cc1ccccn1)[C@H]1CCN(c2ccc(C(=O)N(C)C)cc2F)C1=O)c1ccc(Cl)s1 [Example 8, 4-{(3S)-3-[{[(1E)-2-(5-Chloro-2-thienyl)-1-propen-1-yl]sulfonyl}(2-pyridinylmethyl)amino]-2-oxo-1-pyrrolidinyl}-3-fluoro-N,N-dimethylbenzamide] | < 10 nM |
| C/C(=C\S(=O)(=O)N(CCOCC(N)=O)[C@H]1CCN(c2ccc(C(=O)N(C)C)cc2F)C1=O)c1ccc(Cl)s1 [Example 4, 4-[(3S)-3-({2-[(2-Amino-2-oxoethyl)oxy]ethyl}{[(1E)-2-(5-chloro-2-thienyl)-1-propen-1-yl]sulfonyl}amino)-2-oxo-1-pyrrolidinyl]-3-fluoro-N,N-dimethylbenzamide] | < 10 nM |
| C/C(=C\S(=O)(=O)N(C)[C@H]1CCN(c2ccc(C(=O)N(C)C)cc2F)C1=O)c1ccc(Cl)s1 [Example 13, 4-{(3S)-3-[{[(1E)-2-(5-Chloro-2-thienyl)-1-propen-1-yl]sulfonyl}(methyl)amino]-2-oxo-1-pyrrolidinyl}-3-fluoro-N,N-dimethylbenzamide] | < 10 nM |
| C/C(=C\S(=O)(=O)N(Cc1c(C)noc1C)[C@H]1CCN(c2ccc(C(=O)N(C)C)cc2F)C1=O)c1ccc(Cl)s1 [Example 9, 4-((3S)-3-{{[(1E)-2-(5-Chloro-2-thienyl)-1-propen-1-yl]sulfonyl}[(3,5-dimethyl-4-isoxazolyl)methyl]amino}-2-oxo-1-pyrrolidinyl)-3-fluoro-N,N-dimethylbenzamide] | < 10 nM |
| C/C(=C\S(=O)(=O)N(Cc1nccn1C)[C@H]1CCN(c2ccc(C(=O)N(C)C)cc2F)C1=O)c1ccc(Cl)s1 [Example 6, 4-((3S)-3{{[(1E)-2-(5-Chloro-2-thienyl)-1-propen-1-yl]sulfonyl}[(1-methyl-1H-imidazol-2-yl)methyl]amino}-2-oxo-1-pyrrolidinyl)-3-fluoro-N,N-dimethylbenzamide] | < 10 nM |
| CN(C)C(=O)c1ccc(N2CC[C@H](N(C)S(=O)(=O)/C=C/c3ccc(Cl)s3)C2=O)c(F)c1 [Example 14, 4-{(3S)-3-[{[(E)-2-(5-chloro-2-thienyl)ethenyl]sulfonyl}(methyl)amino]-2-oxo-1-pyrrolidinyl}-3-fluoro-N,N-dimethylbenzamide] | < 10 nM |
| C/C(=C\S(=O)(=O)N(Cc1nccnc1N)[C@H]1CCN(c2ccc(C(=O)N(C)C)cc2F)C1=O)c1ccc(Cl)s1 [Example 12, 4-[(3S)-3-([(3-Amino-2-pyrazinyl)methyl]{[(1E)-2-(5-chloro-2-thienyl)-1-propen-1-yl]sulfonyl}amino)-2-oxo-1-pyrrolidinyl]-3-fluoro-N,N-dimethylbenzamide] | < 10 nM |
| C/C(=C\S(=O)(=O)N(CC1CC1)[C@H]1CCN(c2ccc(C(=O)N(C)C)cc2F)C1=O)c1ccc(Cl)s1 [Example 1, 4-{(3S)-3-[{[(1E)-2-(5-Chloro-2-thienyl)-1-propen-1-yl]sulfonyl}(cycloprotylmethyl)amino]-2-oxo-1-pyrrolidinyl}-3-fluoro-N,N-dimethylbenzamide] | < 10 nM |

More lines, now with the values ahead:

| Ki | Compound |
| --- | --- |
| < 10 nM | C/C(=C\S(=O)(=O)N(CCOC(C)(C)C)[C@H]1CCN(c2ccc(C(=O)N(C)C)cc2F)C1=O)c1ccc(Cl)s1 [Example 11, 4-[(3S)-3-({[(1E)-2-(5-Chloro-2-thienyl)-1-propen-1-yl]sulfonyl}{2-[(1,1-dimethylethyl)oxy]ethyl}amino)-2-oxo-1-pyrrolidinyl]-3-fluoro-N,N-dimethylbenzamide] |
| < 10 nM | COCCN([C@H]1CCN(c2ccc(C(=O)N(C)C)cc2F)C1=O)S(=O)(=O)/C=C(\C)c1ccc(Cl)s1 [Example 10, 4-((3S)-3-{{[(1E)-2-(5-Chloro-2-thienyl)-1-propen-1-yl]sulfonyl}[2-(methyloxy)ethyl]amino}-2-oxo-1-pyrrolidinyl)-3-fluoro-N,N-dimethylbenzamide] |
| < 10 nM | C/C(=C\S(=O)(=O)N(CCCN(C)C)[C@H]1CCN(c2ccc(C(=O)N(C)C)cc2F)C1=O)c1ccc(Cl)s1 [Example 2, 4-((3S)-3-{{[(1E)-2-(5-Chloro-2-thienyl)-1-propen-1-yl]sulfonyl}[3-(dimethylamino)propyl]amino}-2-oxo-1-Pyrrolidinyl)-3-fluoro-N,N-dimethylbenzamide formate] |
| < 10 nM | C/C(=C\S(=O)(=O)N(C(C)C)[C@H]1CCN(c2ccc(C(=O)N(C)C)cc2F)C1=O)c1ccc(Cl)s1 [Example 7, 4-{(3S)-3-[{[(1E)-2-(5-Chloro-2-thienyl)-1-propen-1-yl]sulfonyl}(1-methylethyl)amino]-2-oxo-1-pyrrolidinyl}-3-fluoro-N,N-dimethylbenzamide] |
| < 10 nM | C/C(=C\S(=O)(=O)N(C1CCCC1)[C@H]1CCN(c2ccc(C(=O)N(C)C)cc2F)C1=O)c1ccc(Cl)s1 [Example 5, 4-{(3S)-3-[{[(1E)-2-(5-Chloro-2-thienyl)-1-propen-1-yl]sulfonyl}(cyclopentyl)amino]-2-oxo-1-pyrrolidinyl}-3-fluoro-N,N-dimethylbenzamide] |
